# Results published in patent publication US20220323406A1, “METHODS AND COMPOSITIONS FOR DIFFERENTIATING STEM CELLS” (Massachusetts Institute of Technology, priority 2019, published 2022).
# Structures can show the parent of a compound that is named as a salt.
# What was measured:
# [1] = tested on: ENR+CD organoids; experiment: Primary screen: ATP (CellTiter-Glo 3D, CTG) cell number/viability, 2.5-D 384-well ENR+CD organoids;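 note: compounds given at plating and again on day 3 over a 6-day differentiation from ENR+CV stem-cell-enriched precursors, ATP measured on day 6, plate median as control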
# [2] = tested on: ENR+CD organoids (ISC to Paneth cell differentiation); experiment: Primary screen: CCh-stimulated lysozyme secretion LYZ.S, 2.5-D 384-well ENR+CD organoid differentiation; assay type: cell-based, mouse; details: primary screen
# Source text: (§1) High-throughput screening.
# [3] = tested on: ENR+CD organoids (ISC to Paneth cell differentiation); experiment: Primary screen: basal (non-stimulated) lysozyme secretion LYZ.NS, 2.5-D 384-well ENR+CD organoid differentiation; assay type: cell-based, mouse
# Source text: as §1
# [4] = primary screen, standard z score, dose 0.08 uM
# [5] = primary screen, standard z score, dose 0.40 uM
# [6] = primary screen, standard z score, dose 2.00 uM
# [7] = primary screen, standard z score, dose 10.00 uM
# [8] = primary screen, dose 0.08 uM, FC relative to plate median
# [9] = primary screen, dose 0.40 uM, FC relative to plate median
# [10] = primary screen, dose 2.00 uM, FC relative to plate median
# [11] = primary screen, dose 10.00 uM, FC relative to plate median
# [12] = dose 0.08 uM, FC relative to plate median
# [13] = dose 0.40 uM, FC relative to plate median
# [14] = dose 2.00 uM, FC relative to plate median
# [15] = dose 10.00 uM, FC relative to plate median
# [16] = primary screen, dose 0.08 uM, standard z score
# [17] = primary screen, dose 0.40 uM, standard z score
# [18] = primary screen, dose 2.00 uM, standard z score
# [19] = primary screen, dose 10.00 uM, standard z score
compound,measurement,setting,value
BAM7,Dose.FC.CTG,"[1]; primary screen, dose 0.08 uM",0.209 log2 fold change
same,Z.CTG (standard z score),"[1]; primary screen, dose 0.08 uM",0.498
same,Dose.FC.CTG,"[1]; primary screen, dose 0.40 uM",−0.010 log2 fold change
same,Z.CTG (standard z score),"[1]; primary screen, dose 0.40 uM",−0.024
same,Dose.FC.CTG,"[1]; primary screen, dose 2.00 uM",−0.156 log2 fold change
same,Z.CTG (standard z score),"[1]; primary screen, dose 2.00 uM",−0.373
same,Dose.FC.CTG,"[1]; primary screen, dose 10.00 uM",−0.114 log2 fold change
same,Z.CTG (standard z score),"[1]; primary screen, dose 10.00 uM",−0.272
same,Dose.FC.LYZ.S,[2]; dose 0.08 uM,0.079 log2 fold change
same,Dose.FC.LYZ.S,[2]; dose 0.40 uM,0.039 log2 fold change
same,Dose.FC.LYZ.S,[2]; dose 2.00 uM,0.019 log2 fold change
same,Dose.FC.LYZ.S,[2]; dose 10.00 uM,−0.020 log2 fold change
same,Dose.FC.LYZ.NS,"[3]; primary screen, dose 0.08 uM",0.045 log2 fold change
same,Z.LYZ.NS (standard z score),"[3]; primary screen, dose 0.08 uM",0.391
same,Dose.FC.LYZ.NS,"[3]; primary screen, dose 0.40 uM",−0.009 log2 fold change
same,Z.LYZ.NS (standard z score),"[3]; primary screen, dose 0.40 uM",−0.082
same,Dose.FC.LYZ.NS,"[3]; primary screen, dose 2.00 uM",0.057 log2 fold change
same,Z.LYZ.NS (standard z score),"[3]; primary screen, dose 2.00 uM",0.498
same,Dose.FC.LYZ.NS,"[3]; primary screen, dose 10.00 uM",−0.007 log2 fold change
same,Z.LYZ.NS (standard z score),"[3]; primary screen, dose 10.00 uM",−0.063
Cc1ccccc1C(=O)Nc1ccc(C(=O)N2CCCC(O)c3cc(Cl)ccc32)c(C)c1 (stereo not shown) [Tolvaptan],Dose.FC.CTG,"[1]; primary screen, dose 0.08 uM",0.095 log2 fold change
same,Dose.FC.CTG,"[1]; primary screen, dose 0.40 uM",−0.008 log2 fold change
same,Dose.FC.CTG,"[1]; primary screen, dose 2.00 uM",−0.094 log2 fold change
same,Dose.FC.CTG,"[1]; primary screen, dose 10.00 uM",−0.104 log2 fold change
same,Dose.FC.LYZ.S,[2]; dose 0.08 uM,0.086 log2 fold change
same,Dose.FC.LYZ.S,[2]; dose 0.40 uM,0.031 log2 fold change
same,Dose.FC.LYZ.S,[2]; dose 2.00 uM,−0.048 log2 fold change
same,Dose.FC.LYZ.S,[2]; dose 10.00 uM,−0.150 log2 fold change
same,Dose.FC.LYZ.NS,"[3]; primary screen, dose 0.08 uM",0.049 log2 fold change
same,Z.LYZ.NS (standard z score),"[3]; primary screen, dose 0.08 uM",0.429
same,Dose.FC.LYZ.NS,"[3]; primary screen, dose 0.40 uM",−0.041 log2 fold change
same,Z.LYZ.NS (standard z score),"[3]; primary screen, dose 0.40 uM",−0.355
same,Dose.FC.LYZ.NS,"[3]; primary screen, dose 2.00 uM",−0.023 log2 fold change
same,Z.LYZ.NS (standard z score),"[3]; primary screen, dose 2.00 uM",−0.204
same,Dose.FC.LYZ.NS,"[3]; primary screen, dose 10.00 uM",−0.093 log2 fold change
same,Z.LYZ.NS (standard z score),"[3]; primary screen, dose 10.00 uM",−0.807
CCn1c2ccccc2c2cc(Nc3ccnc(NCCCN4CCOCC4)n3)ccc21 [EHop-016],Dose.FC.CTG,"[1]; primary screen, dose 0.08 uM",0.081 log2 fold change
same,Dose.FC.CTG,"[1]; primary screen, dose 0.40 uM",0.062 log2 fold change
same,Dose.FC.CTG,"[1]; primary screen, dose 2.00 uM",0.088 log2 fold change
same,Dose.FC.CTG,"[1]; primary screen, dose 10.00 uM",−0.757 log2 fold change
same,Z.CTG,[1]; [4],0.193
same,Z.CTG,[1]; [5],0.147
same,Z.CTG,[1]; [6],0.211
same,Z.CTG,[1]; [7],−1.808
same,Dose.FC.LYZ.S,[2]; dose 0.08 uM,0.091 log2 fold change
same,Dose.FC.LYZ.S,[2]; dose 0.40 uM,0.012 log2 fold change
same,Dose.FC.LYZ.S,[2]; dose 2.00 uM,−0.011 log2 fold change
same,Dose.FC.LYZ.S,[2]; dose 10.00 uM,−0.299 log2 fold change
same,Dose.FC.LYZ.NS,"[3]; primary screen, dose 0.08 uM",0.177 log2 fold change
same,Dose.FC.LYZ.NS,"[3]; primary screen, dose 0.40 uM",0.035 log2 fold change
same,Dose.FC.LYZ.NS,"[3]; primary screen, dose 2.00 uM",0.029 log2 fold change
same,Dose.FC.LYZ.NS,"[3]; primary screen, dose 10.00 uM",−0.203 log2 fold change
same,Z.LYZ.NS,[3]; [4],1.537
same,Z.LYZ.NS,[3]; [5],0.302
same,Z.LYZ.NS,[3]; [6],0.252
same,Z.LYZ.NS,[3]; [7],−1.769
C[C@@H](NCCCc1cccc(C(F)(F)F)c1)c1cccc2ccccc12 [Cinacalcet HCl],Dose.FC.CTG,"[1]; primary screen, dose 0.08 uM",−0.444 log2 fold change
same,Dose.FC.CTG,"[1]; primary screen, dose 0.40 uM",−0.298 log2 fold change
same,Dose.FC.CTG,"[1]; primary screen, dose 2.00 uM",−0.012 log2 fold change
same,Dose.FC.CTG,"[1]; primary screen, dose 10.00 uM",−0.451 log2 fold change
same,Dose.FC.LYZ.S,[2]; dose 0.08 uM,−0.084 log2 fold change
same,Dose.FC.LYZ.S,[2]; dose 0.40 uM,0.039 log2 fold change
same,Dose.FC.LYZ.S,[2]; dose 2.00 uM,−0.025 log2 fold change
same,Dose.FC.LYZ.S,[2]; dose 10.00 uM,−0.130 log2 fold change
same,Dose.FC.LYZ.NS,"[3]; primary screen, dose 0.08 uM",−0.062 log2 fold change
same,Dose.FC.LYZ.NS,"[3]; primary screen, dose 0.40 uM",−0.023 log2 fold change
same,Dose.FC.LYZ.NS,"[3]; primary screen, dose 2.00 uM",−0.022 log2 fold change
same,Dose.FC.LYZ.NS,"[3]; primary screen, dose 10.00 uM",−0.091 log2 fold change
same,Z.LYZ.NS,[3]; [4],−0.536
same,Z.LYZ.NS,[3]; [5],−0.202
same,Z.LYZ.NS,[3]; [6],−0.189
same,Z.LYZ.NS,[3]; [7],−0.790
CCn1c(-c2nonc2N)nc2c(C#CC(C)(C)O)ncc(OC[C@H]3CCCNC3)c21 [GSK690693],Dose.FC.CTG (log2 fold change),"[1]; primary screen, dose 0.08 uM",0.129
same,Z.CTG (standard z score),"[1]; primary screen, dose 0.08 uM",0.308
same,Dose.FC.CTG (log2 fold change),"[1]; primary screen, dose 0.40 uM",0.197
same,Z.CTG (standard z score),"[1]; primary screen, dose 0.40 uM",0.470
same,Dose.FC.CTG (log2 fold change),"[1]; primary screen, dose 2.00 uM",−0.027
same,Z.CTG (standard z score),"[1]; primary screen, dose 2.00 uM",−0.064
same,Dose.FC.CTG (log2 fold change),"[1]; primary screen, dose 10.00 uM",−0.182
same,Z.CTG (standard z score),"[1]; primary screen, dose 10.00 uM",−0.434
same,Dose.FC.LYZ.S (log2 fold change),[2]; dose 0.08 uM,0.019
same,Dose.FC.LYZ.S (log2 fold change),[2]; dose 0.40 uM,0.155
same,Dose.FC.LYZ.S (log2 fold change),[2]; dose 2.00 uM,0.124
same,Dose.FC.LYZ.S (log2 fold change),[2]; dose 10.00 uM,−0.153
same,Dose.FC.LYZ.NS (log2 fold change),"[3]; primary screen, dose 0.08 uM",0.045
same,Z.LYZ.NS (standard z score),"[3]; primary screen, dose 0.08 uM",0.388
same,Dose.FC.LYZ.NS (log2 fold change),"[3]; primary screen, dose 0.40 uM",0.047
same,Z.LYZ.NS (standard z score),"[3]; primary screen, dose 0.40 uM",0.409
same,Dose.FC.LYZ.NS (log2 fold change),"[3]; primary screen, dose 2.00 uM",0.122
same,Z.LYZ.NS (standard z score),"[3]; primary screen, dose 2.00 uM",1.060
same,Dose.FC.LYZ.NS (log2 fold change),"[3]; primary screen, dose 10.00 uM",−0.080
same,Z.LYZ.NS (standard z score),"[3]; primary screen, dose 10.00 uM",−0.698
CC(NC(=O)c1ccccc1/N=C/c1c(O)ccc2ccccc12)c1ccccc1 (stereo not shown) [Sirtinol],Dose.FC.CTG,[1]; [8],−0.218 log2 fold change
same,Dose.FC.CTG,[1]; [9],0.009 log2 fold change
same,Dose.FC.CTG,[1]; [10],−0.120 log2 fold change
same,Dose.FC.CTG,[1]; [11],−0.078 log2 fold change
same,Dose.FC.LYZ.S,[2]; [12],0.077 log2 fold change
same,Dose.FC.LYZ.S,[2]; [13],0.088 log2 fold change
same,Dose.FC.LYZ.S,[2]; [14],0.028 log2 fold change
same,Dose.FC.LYZ.S,[2]; [15],0.026 log2 fold change
same,Dose.FC.LYZ.NS,[3]; [8],0.095 log2 fold change
same,Z.LYZ.NS,[3]; [16],0.824
same,Dose.FC.LYZ.NS,[3]; [9],0.000 log2 fold change
same,Z.LYZ.NS,[3]; [17],0.002
same,Dose.FC.LYZ.NS,[3]; [10],0.061 log2 fold change
same,Z.LYZ.NS,[3]; [18],0.531
same,Dose.FC.LYZ.NS,[3]; [11],0.078 log2 fold change
same,Z.LYZ.NS,[3]; [19],0.679
CNC(=O)c1ccc2cc([C@@]3(O)CCn4cncc43)ccc2c1 [TAK-700 (Orteronel)],Dose.FC.CTG,[1]; [8],−0.276 log2 fold change
same,Z.CTG,[1]; [16],−0.659
same,Dose.FC.CTG,[1]; [9],−0.024 log2 fold change
same,Z.CTG,[1]; [17],−0.056
same,Dose.FC.CTG,[1]; [10],−0.084 log2 fold change
same,Z.CTG,[1]; [18],−0.202
same,Dose.FC.CTG,[1]; [11],0.092 log2 fold change
same,Z.CTG,[1]; [19],0.219
same,Dose.FC.LYZ.S,[2]; [12],0.113 log2 fold change
same,Dose.FC.LYZ.S,[2]; [13],0.090 log2 fold change
same,Dose.FC.LYZ.S,[2]; [14],0.093 log2 fold change
same,Dose.FC.LYZ.S,[2]; [15],0.032 log2 fold change
same,Dose.FC.LYZ.NS,[3]; [8],0.176 log2 fold change
same,Z.LYZ.NS,[3]; [16],1.535
same,Dose.FC.LYZ.NS,[3]; [9],0.182 log2 fold change
same,Z.LYZ.NS,[3]; [17],1.585
same,Dose.FC.LYZ.NS,[3]; [10],0.121 log2 fold change
same,Z.LYZ.NS,[3]; [18],1.058
same,Dose.FC.LYZ.NS,[3]; [11],−0.002 log2 fold change
same,Z.LYZ.NS,[3]; [19],−0.018
Nc1ncnc2n[nH]c(Nc3ccc(F)cc3)c12 [CGP57380],Dose.FC.CTG,"[1]; primary screen, dose 0.08 uM",0.108 log2 fold change
same,Dose.FC.CTG,"[1]; primary screen, dose 0.40 uM",−0.293 log2 fold change
same,Dose.FC.CTG,"[1]; primary screen, dose 2.00 uM",−0.460 log2 fold change
same,Dose.FC.CTG,"[1]; primary screen, dose 10.00 uM",0.055 log2 fold change
same,Z.CTG,[1]; [4],0.258
same,Z.CTG,[1]; [5],−0.700
same,Z.CTG,[1]; [6],−1.098
same,Z.CTG,[1]; [7],0.132
same,Dose.FC.LYZ.S,[2]; dose 0.08 uM,0.096 log2 fold change
same,Dose.FC.LYZ.S,[2]; dose 0.40 uM,0.054 log2 fold change
same,Dose.FC.LYZ.S,[2]; dose 2.00 uM,−0.095 log2 fold change
same,Dose.FC.LYZ.S,[2]; dose 10.00 uM,−0.088 log2 fold change
same,Dose.FC.LYZ.NS,"[3]; primary screen, dose 0.08 uM",0.218 log2 fold change
same,Dose.FC.LYZ.NS,"[3]; primary screen, dose 0.40 uM",−0.041 log2 fold change
same,Dose.FC.LYZ.NS,"[3]; primary screen, dose 2.00 uM",−0.055 log2 fold change
same,Dose.FC.LYZ.NS,"[3]; primary screen, dose 10.00 uM",−0.037 log2 fold change
same,Z.LYZ.NS,[3]; [4],1.900
same,Z.LYZ.NS,[3]; [5],−0.354
same,Z.LYZ.NS,[3]; [6],−0.477
same,Z.LYZ.NS,[3]; [7],−0.321
